# Reference: US10988465B2, “CXCR4 inhibitors and uses thereof” (X4 Pharmaceuticals, Inc., priority 2016, dated 2021)
# Assays:
# [1] = molecular target: T1, Jurkat cells expressing CXCR4 (Homo sapiens, UniProt P61073); assay: Chemokine (CXCL12-AF647) binding inhibition assay; details: CXCL12-AF647 25 ng/mL, read-out: IC50 CXCL-12 binding Jurkat
# T1 construct: endogenous in cells; host or cells: Jurkat
# How it was run: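 Cells in HBSS, 20 mM HEPES, 0.2% BSA, pH 7.4, preincubated 15 min at room temperature with compound, then 25 ng/mL CXCL12-AF647 for 30 min. After washing and paraformaldehyde fixation, bound ligand read by flow cytometry; percent inhibition calculated from MFI relative to unlabeled and ligand-only controls.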
# in vitro = details: human, Caco-2, pH 7.4
# How it was run: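 Caco-2 monolayers, checked by TEER with Lucifer yellow as marker, were dosed with 10 μM compound in HBSS pH 7.4 in A-to-B and B-to-A directions. Incubation was 90 min at 37° C, in duplicate. Samples were quantified by LC-MS/MS and Papp calculated.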
# [2] = molecular target: T2, CXCR-4 transfected U87 cell line (U87.CXCR4) (Homo sapiens, UniProt P61073); assay: Intracellular CXCL-12-induced calcium mobilization assay (FLIPR); type: cell-based; details: U87.CXCR4 cells; CXCL-12 25-50 ng/mL; compound added 15 min before; read-out: IC50 CXCL-12 Ca^2+ flux U87.CXCR4+
# T2 construct: expressed in transfected cells; host or cells: U87 (U87.CXCR4)
# How it was run: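 U87 cells stably expressing human CXCR4, loaded with Fluo-2 AM (4 μM final) for 45 min at 37 °C in HBSS/20 mM HEPES/0.2% BSA, pH 7.4. Calcium flux triggered by CXCL-12 (25-50 ng/mL) was followed by FLIPR fluorescence over time at 37 °C.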
# T1 sequence (P61073 whole entry): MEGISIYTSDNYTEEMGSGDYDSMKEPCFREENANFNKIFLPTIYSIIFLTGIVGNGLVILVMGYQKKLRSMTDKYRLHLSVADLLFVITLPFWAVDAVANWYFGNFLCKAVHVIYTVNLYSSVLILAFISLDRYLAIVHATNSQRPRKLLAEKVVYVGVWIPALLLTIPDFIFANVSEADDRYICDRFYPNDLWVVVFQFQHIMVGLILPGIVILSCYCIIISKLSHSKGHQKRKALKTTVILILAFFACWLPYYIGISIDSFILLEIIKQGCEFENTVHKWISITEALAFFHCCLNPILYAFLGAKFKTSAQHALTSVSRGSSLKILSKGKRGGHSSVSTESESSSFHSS
# T2 sequence (P61073 whole entry): as above
SMILES,IC50 [1] [nM],"Papp A→B at 90 min, 10 μM (in vitro) [×10⁻⁶ cm/s]","Papp B→A at 90 min, 10 μM (in vitro) [×10⁻⁶ cm/s]","efflux ratio at 90 min, 10 μM (in vitro)",IC50 [2] [nM]
"Cc1cccnc1[C@@H]1CCC[C@H](c2nc3ccccc3n2CCCN2CCN(C)CC2)N1C [I-17, 2-((2R,6S)-1-methyl-6-(3-methylpyridin-2-yl)piperidin-2-yl)-1-(3-(4-methylpiperazin-1-yl)propyl)-1H-benzo[d]imidazole]",0.01 to 100,0.1 to 10,0.1 to 10,0.1 to 10,0.01 to 100
Cc1cccnc1[C@@H]1CCC[C@H](c2nc3cccc(OC4CCN(C(C)C)CC4)c3[nH]2)N1C [I-44],0.01 to 100,0.1 to 10,10 to 30,0.1 to 10,0.01 to 100
"CN1CCN(c2cccc3nc([C@H]4CCC[C@@H](c5ncccc5C#N)N4C)[nH]c23)CC1 [I-10, 2-((2S,6R)-1-methyl-6-(7-(4-methylpiperazin-1-yl)-1H-benzo[d]imidazol-2-yl)piperidin-2-yl)nicotinonitrile]",100 to 1000,10 to 30,10 to 30,0.1 to 10,≥ 1000
"Cc1cccnc1[C@@H]1CCC[C@H](c2nc3ccccc3[nH]2)N1CCc1ccccn1 [I-27, 2-((2R,6S)-6-(3-methylpyridin-2-yl)-1-(2-(pyridin-2-yl)ethyl)piperidin-2-yl)-1H-benzo[d]imidazole]",0.01 to 100,10 to 30,10 to 30,0.1 to 10,0.01 to 100
Cc1cccnc1[C@@H]1CCC[C@H](c2nccn2Cc2ccccc2-n2cccn2)N1 [I-167],≥ 1000,> 30,> 30,0.1 to 10,≥ 1000
Cc1cccnc1[C@@H]1CCC[C@H](c2nccn2CCn2cccn2)N1 [I-176],≥ 1000,10 to 30,> 30,0.1 to 10,≥ 1000
Cc1cccnc1[C@@H]1CCC[C@H](c2nc3cccc(N4C5CCC4CNC5)c3[nH]2)N1C [I-99],0.01 to 100,0.1 to 10,> 30,> 30,0.01 to 100
Cc1cccnc1[C@@H]1CCC[C@H](c2nc3cccc(C4CCN(C)CC4)c3[nH]2)N1 [I-151],0.01 to 100,0.1 to 10,10 to 30,0.1 to 10,0.01 to 100
Cc1cccnc1[C@@H]1CCC[C@H](c2nc3ccccc3n2CCCCN2CCC(F)(F)CC2)N1C [I-41],0.01 to 100,0.1 to 10,0.1 to 10,0.1 to 10,≥ 1000
"CN1CCN(c2cccc3nc([C@H]4CCC[C@@H](c5ncccc5Br)N4C)[nH]c23)CC1 [I-28, 2-((2R,6S)-6-(3-bromopyridin-2-yl)-1-methylpiperidin-2-yl)-7-(4-methylpiperazin-1-yl)-1H-benzo[d]imidazole]",0.01 to 100,0.1 to 10,0.1 to 10,0.1 to 10,100 to 1000
CN1CCC(n2ccnc2[C@H]2CCC[C@@H](c3ncccc3Cl)N2)CC1 [I-172],≥ 1000,10 to 30,10 to 30,0.1 to 10,≥ 1000
CN1CCN(c2cccc3nc([C@H]4CCC[C@@H](c5nccc6c5OCCO6)N4C)[nH]c23)CC1 [I-65],100 to 1000,10 to 30,10 to 30,0.1 to 10,100 to 1000
CO[C@@H]1C[C@H](c2nc3cccc(N4CCN(C)CC4)c3[nH]2)N(C)[C@H](c2ncccc2C)C1 [I-102],0.01 to 100,0.1 to 10,10 to 30,0.1 to 10,100 to 1000
Cc1cccnc1[C@@H]1CCC[C@H](c2nc3ccccc3n2CCC#N)N1 [I-159],≥ 1000,10 to 30,10 to 30,0.1 to 10,≥ 1000
COCCCn1c([C@H]2CCC[C@@H](c3ncccc3C)N2)nc2ccccc21 [I-158],≥ 1000,10 to 30,10 to 30,0.1 to 10,≥ 1000
"Cc1cccnc1[C@@H]1CCC[C@H](c2nc3ccccc3n2CCCN2CCOCC2)N1C [I-18, 4-(3-(2-((2R,6S)-1-methyl-6-(3-methylpyridin-2-yl)piperidin-2-yl)-1H-benzo[d]imidazol-1-yl)-propyl)morpholine]",0.01 to 100,10 to 30,10 to 30,0.1 to 10,0.01 to 100

# Continued, values first:
IC50 [1] [nM],"Papp A→B at 90 min, 10 μM (in vitro) [×10⁻⁶ cm/s]","Papp B→A at 90 min, 10 μM (in vitro) [×10⁻⁶ cm/s]","efflux ratio at 90 min, 10 μM (in vitro)",IC50 [2] [nM],SMILES
0.01 to 100,0.1 to 10,0.1 to 10,0.1 to 10,0.01 to 100,"Cc1cccnc1[C@@H]1CCC[C@H](c2nc3ccccc3n2CCCN2CCC(F)(F)CC2)N1C [I-30, 1-(3-(4,4-difluoropiperidin-1-yl)propyl)-2-((2R,6S)-1-methyl-6-(3-methylpyridin-2-yl)piperidin-2-yl)-1H-benzo[d]imidazole]"
0.01 to 100,10 to 30,10 to 30,0.1 to 10,0.01 to 100,Cc1cccnc1[C@@H]1CCC[C@H](c2nc3ccccc3n2C2CCN(C)CC2)N1C [I-130]
0.01 to 100,0.1 to 10,10 to 30,0.1 to 10,100 to 1000,Cc1cccnc1[C@@H]1CCC[C@H](c2nc3ccccc3n2C2CCN(C)CC2)N1 [I-131]
0.01 to 100,10 to 30,10 to 30,0.1 to 10,0.01 to 100,CN1CCC(n2c([C@H]3CCC[C@@H](c4ncccc4Cl)N3)nc3ccccc32)CC1 [I-135]
0.01 to 100,10 to 30,10 to 30,0.1 to 10,≥ 1000,CN(C)C1CCN(c2cccc3nc([C@H]4CCC[C@@H](c5ncccc5Cl)N4C)[nH]c23)CC1 [I-97]
0.01 to 100,0.1 to 10,10 to 30,0.1 to 10,0.01 to 100,Cc1cccnc1[C@@H]1CCC[C@H](c2nc3ccccc3[nH]2)N1CCc1cn2ccccc2n1 [I-164]
0.01 to 100,0.1 to 10,10 to 30,0.1 to 10,100 to 1000,Cc1cccnc1[C@@H]1CCC[C@H](c2nc3ccccc3n2CCCCN(C)C)N1C [I-38]
0.01 to 100,0.1 to 10,10 to 30,0.1 to 10,100 to 1000,"Cc1cccnc1[C@@H]1CCC[C@H](c2nccn2CCCN(C)C)N1C [I-165, N,N-dimethyl-3-(2-((2R,6S)-1-methyl-6-(3-methylpyridin-2-yl)piperidin-2-yl)-1H-imidazol-1-yl)propan-1-amine]"
0.01 to 100,0.1 to 10,10 to 30,0.1 to 10,0.01 to 100,CN(C)C1CCN(c2cccc3nc([C@H]4CCC[C@@H](c5ncccc5Cl)N4)[nH]c23)CC1 [I-153]
